pIC50: −log10 of the molar value.
How the values were obtained:
[1] = test system: alkaline phosphatase (APb); assay: alkaline phosphatase (APb) induction in LE II cells; format: cell-based, mouse; settings: Mus musculus, Table 1, about 65 hours, relative to dexamethasone = 1, read-out: Efficacy (DEX = 1) Alk P
Procedure: This is another standard test for glucocorticoid activity.
LE II cells were grown in DMEM plus 10% FCS, at 37° C., in a 10% carbon dioxide atmosphere. Confluent monolayers of cells were trypsinized and seeded at a 1:15 dilution into 6-well Costar cluster dishes. […] In all experiments, DEX, at concentrations of 10^-9 to 10^-6 M, was added to some of the wells as a positive control.
Cell monolayers were washed with PBS and harvested by scraping with a rubber policeman into 400 μl of a buffer of 20 mM Tris-HCl at pH 7.4; 2 mM MgCl2; and 150 mM NaCl together with 1% Triton X-100. Samples were transferred into 1.5 ml Eppendorf centrifuge tubes and placed on ice. The tubes were first vortexed and then centrifuged in the Eppendorf minicentrifuge for 2 minutes. Duplicate 100 μl aliquots of supernatant were placed into 12×75 mm glass test tubes for determination of APb activity, while the rest was saved for protein determination. […] The tubes were incubated in a 37° C. water bath for between 20 to 50 minutes, depending on the activity of the samples. The APb reaction was terminated by the addition of 0.5 ml of […]. The tubes were mixed and 200 μl portions from each tube were transferred in triplicate to a 96 well microtiter plate. The OD410 nm of each well was then determined using a Dynatech plate reader.
[…] of the cell supernatant were transferred to 96 well microtiter plates for protein determination by a modification of the Lowry method. […] The plates were shaken for 1 hour and then the OD630 was determined using a Dynatech plate reader. The protein content for each sample was calculated by comparing the average OD630 reading with those obtained for a bovine serum albumin standard curve.
The alkaline phosphatase activity of in each sample was expressed as μmoles product formed per minute per mg protein in the Alk P column of Tables 1 and 2. Results are expressed as the induction ability of a compound as compared to dexamethasone.

glucocorticoid receptor = target: T1, glucocorticoid receptor (Rattus norvegicus, UniProt P06536); assay: competition for 3H-dexamethasone binding sites in HTC cytosol (glucocorticoid receptor affinity); settings: Table 1; displacement of 25 nM 3H-DEX, HTC (rat hepatoma) cytosol, 3 hours on ice
T1 construct: endogenous in cells; host or cells: HTC (rat hepatoma) cells, 100,000 x g cytosol
T1 sequence (P06536 1-795): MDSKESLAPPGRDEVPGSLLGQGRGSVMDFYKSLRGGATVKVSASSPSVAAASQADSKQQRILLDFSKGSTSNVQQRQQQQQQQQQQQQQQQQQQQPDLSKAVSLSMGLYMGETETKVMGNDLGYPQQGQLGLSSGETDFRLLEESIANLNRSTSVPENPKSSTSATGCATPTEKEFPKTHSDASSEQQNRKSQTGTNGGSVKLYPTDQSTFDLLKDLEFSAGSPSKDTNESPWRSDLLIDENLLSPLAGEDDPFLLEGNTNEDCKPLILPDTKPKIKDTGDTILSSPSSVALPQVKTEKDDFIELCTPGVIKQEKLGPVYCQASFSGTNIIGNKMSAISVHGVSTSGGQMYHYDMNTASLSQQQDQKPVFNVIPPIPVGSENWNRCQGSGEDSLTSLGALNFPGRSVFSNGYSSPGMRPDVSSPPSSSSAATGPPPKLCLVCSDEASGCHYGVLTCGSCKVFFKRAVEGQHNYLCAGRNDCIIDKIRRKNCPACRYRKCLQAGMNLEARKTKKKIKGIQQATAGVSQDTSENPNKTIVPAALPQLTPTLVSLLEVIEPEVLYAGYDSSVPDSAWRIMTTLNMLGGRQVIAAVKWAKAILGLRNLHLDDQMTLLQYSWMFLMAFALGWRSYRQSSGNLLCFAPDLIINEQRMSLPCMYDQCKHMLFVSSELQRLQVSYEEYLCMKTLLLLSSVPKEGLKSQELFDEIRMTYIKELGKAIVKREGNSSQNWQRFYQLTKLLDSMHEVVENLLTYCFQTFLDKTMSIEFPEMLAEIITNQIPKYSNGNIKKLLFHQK
Procedure: LE II (mouse lung capillary endothelial) or HTC (rat hepatoma) cells were grown in Dulbecco's modified Eagle's (DMEM) medium plus 10% fetal calf serum (FCS), in 150 cm^2 T-flasks. Approximately 20 flasks of LE II cells or 10 flasks of HTC cells were needed for a 60-80 sample assay.
Cell monolayers were washed 3 times with Phosphate Buffered Saline (PBS) and harvested by scraping with a rubber policeman into an ice-cold sonication buffer of 0.25M sucrose; 10 mM Tris-HCl, pH 7.4; 5 mM ethylenediaminetetraacetic acid (EDTA); 5 mM dithiothereitol; and 10 mM sodium molybdate. All subsequent steps were performed at 4° C. The cells were pooled into a final volume of 8-12 mls, broken by sonication for 45 seconds with the microtip of a Branson sonifier at setting #3 and the residue was then centrifuged at 100,000 X g for 30 minutes with a Beckman L8-50, Ti50 rotor, at 40,000 rpm. […] Incubations were peformed in a final volume of 1 ml in 1.5 ml Eppendorf centrifuge tubes for 3 hours on ice.
Fine Sephadex G-50 gel was swollen and equilibrated against column buffer of 100 mM Tris-HCl, pH 7.8; and 3 mM CaCl2. Columns were poured to a final packed volume of 4.5 ml in 5 ml plastic disposable pipets.
The packed columns were then drained of buffer and the 1 ml incubated samples were applied to each. The samples were washed into the columns with 0.5 ml of column buffer, and the exclusion volumes containing the protein peaks were eluted with another 1 ml of column buffer and collected. Aliquots of 750 μl of Biorad protein reagent were diluted 1:5 in H2 O. OD630 nm reading were compared with those obtained for a bovine serum albumin standard curve.

SMILES | Emax [1] [%] | pIC50 (glucocorticoid receptor)
CCC(=O)O[C@]1(C(=O)OC)[C@@H](C)C[C@H]2[C@@H]3CCC4=CC(=O)C=C[C@]4(C)[C@@]3(F)[C@@H](O)C[C@@]21C [compound 1] | 100 | 8.30
CCC(=O)O[C@]1(C(=O)OC)[C@@H](C)C[C@H]2[C@@H]3CC(F)C4=C(F)C(=O)C=C[C@]4(C)[C@@]3(F)[C@@H](O)C[C@@]21C (stereo partly drawn) [compound 3] | 100 | 7.82
CCCC(=O)O[C@]1(C(=O)OC)[C@@H](C)C[C@H]2[C@@H]3CC(F)C4=CC(=O)C=C[C@]4(C)[C@@]3(F)[C@@H](O)C[C@@]21C (stereo partly drawn) [compound 4] | 170 | 9.60
CCC(=O)O[C@]1(C(=O)OC)[C@H](C)C[C@H]2[C@@H]3CC(F)C4=CC(=O)C=C[C@]4(C)[C@@]3(F)[C@@H](O)C[C@@]21C (stereo partly drawn) [compound 7] | 110 | 8.40
CCC(=O)O[C@]1(C(=O)OC)[C@H](C)C[C@H]2[C@@H]3CC(F)C4=C(F)C(=O)C=C[C@]4(C)[C@@]3(F)[C@@H](O)C[C@@]21C (stereo partly drawn) [compound 8] | 120 | 9.60
CCCC(=O)O[C@]1(C(=O)OC)[C@H](C)C[C@H]2[C@@H]3CC(F)C4=CC(=O)C=C[C@]4(C)[C@@]3(F)[C@@H](O)C[C@@]21C (stereo partly drawn) [compound 9] | 90 | 10.60

Source: patent US4599331A, “Etianic acids as antiangiogenics” (Syntex (U.S.A.) Inc., priority 1984, dated 1986)
